Assay results taken from ChEMBL document CHEMBL1201862, “PubChem BioAssay data set” (2004).
The source made the active and inactive calls.

How the values were obtained:
[1] = biological target: G-protein coupled receptor 183 (Homo sapiens, UniProt P32249); experiment: SAR confirmation of small molecule antagonists of the EBI2 receptor via a luminescent beta-arrestin assa.; format: functional
[2] = Dose-response inhibition of insulin secretion in a rat insulinoma line at 5 mM glucose (AID 1117331); format: functional, cell-based; details: INS-1E
[3] = half-maximal inhibitory concentration for glucagon-like peptide-1 release, STC-1 cell line, dose-response (AID 1117345); format: functional, cell-based
[4] = Glucagon-like peptide 1 release potency, NCI-H716 cell line, dose-response, half-maximal inhibitory concentration (AID 1117344); format: functional, cell-based
Ephrin type-A receptor 4 = Ephrin type-A receptor 4 (Mus musculus, UniProt Q03137); experiment: inhibitors of EphA4 binding to KYL peptide, primary screen, biochemical, colorimetric, mouse EphA4 (AID 689); format: functional
Paired box protein Pax-8 = Paired box protein Pax-8 (Homo sapiens, UniProt Q06710); experiment: inhibitors of PAX8-driven TPO luciferase reporter, dose response, RMG-I cells, cherry-pick (AID 687027); format: functional, cell-based;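 note: luciferase reporter driven by Pax8 target thyroperoxidase promoter measured by SteadyGlo luminescence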
[5] = PAX2 cell-based inhibition, dose response, selectivity assay for PAX8 inhibitor project, plate reader, dry powder samples (AID 743048); format: functional;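 note: HEK293 cells carrying a WT1 promoter luciferase reporter driven by expressed Pax2; potency is for inhibition of Pax2 driven reporter signal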
[6] = NIH:OVCAR-3 ovarian cancer cell cytotoxicity, dose response, PAX8 inhibitor project, plate reader, dry powder samples (AID 743044); format: functional, cell-based
[7] = PAX5 activity inhibitors, dose response, selectivity assay for PAX8 inhibitor project, cell-based, plate reader, dry powder samples (AID 743047); format: functional;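 note: HEK293 cells carrying a Pax5 driven CD19 promoter luciferase reporter; potency of inhibitors that lower reporter luminescence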
[8] = IGROV1 ovarian cancer cell cytotoxicity, dose response, PAX8 inhibitor project, plate reader, dry powder samples (AID 743043); format: functional, cell-based; details: IGROV-1
[9] = cytotoxicity in COV434 cells, dose response, cytotoxicity control for PAX8 inhibitor project, cell-based, plate reader, dry powder, SA7 (AID 743145); format: functional
[10] = cytotoxicity in OV-90 ovarian cancer cells, dose response, PAX8 inhibitor project, cell-based, plate reader, dry powder, SA8 (AID 743149); format: functional
[11] = cytotoxicity dependent on PAX8, dose response, cell-based, plate reader, dry powder (AID 743049); format: functional
[12] = Luminescence-based cell-based high throughput dose response assay to identify activators of the DAF-12 from the parasite S. stercoralis (ssDAF-12).; format: functional
[13] = biological target: T1, Oxysterols receptor LXR-beta (Homo sapiens, UniProt P55055); experiment: LXR agonists, Gal4 luciferase reporter, dose response, counter-screen for ssDAF-12 agonist project, cell-based, luminescence, HEK293, S. stercoralis campaign (AID 720737); format: functional; details: read-out: IC50 (the source's name)
T1 sequence (P55055 whole entry): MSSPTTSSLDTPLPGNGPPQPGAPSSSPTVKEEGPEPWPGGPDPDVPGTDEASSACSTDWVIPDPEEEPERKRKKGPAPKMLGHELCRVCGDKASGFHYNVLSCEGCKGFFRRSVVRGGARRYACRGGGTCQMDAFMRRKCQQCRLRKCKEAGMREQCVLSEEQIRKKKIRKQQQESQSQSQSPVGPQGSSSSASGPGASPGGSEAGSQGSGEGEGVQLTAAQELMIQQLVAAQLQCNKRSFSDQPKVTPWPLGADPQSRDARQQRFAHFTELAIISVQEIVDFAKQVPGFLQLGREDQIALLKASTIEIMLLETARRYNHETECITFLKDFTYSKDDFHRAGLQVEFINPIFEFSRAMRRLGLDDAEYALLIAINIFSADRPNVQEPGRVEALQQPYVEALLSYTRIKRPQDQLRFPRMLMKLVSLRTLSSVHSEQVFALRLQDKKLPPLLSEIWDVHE

[14] = MITF Orthogonal Assay: SK-MEL-5 CTG Assay Measured in Cell-Based System Using Plate Reader - 2084-02_Inhibitor_Dose_DryPowder_Activity_Set7.; format: functional
[15] = MITF: Counter assay: A375 proliferation Measured in Cell-Based System Using Plate Reader - 2084-03_Inhibitor_Dose_DryPowder_Activity_Set8.; format: functional; details: A-375
[16] = TRPM1 promoter luciferase reporter signal decrease, dose response, MITF inhibitor project, cell-based, SK-MEL-5, dry powder, set 8 (AID 624430); format: functional
[17] = biological target: Glyceraldehyde-3-phosphate dehydrogenase (Homo sapiens, UniProt P04406)
Bcl-2-related protein A1 [18] = biological target: T2, Bcl-2-related protein A1 (Mus musculus, UniProt Q07440); experiment: Bfl-1 inhibitors blocking BH3 peptide binding, confirmation, biochemical, TR-FRET, mouse Bfl-1 (AID 621);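 note: TR-FRET binding of GST-Bfl-1 to FITC-labelled Bid peptide via terbium antibody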
T2 sequence (Q07440 whole entry): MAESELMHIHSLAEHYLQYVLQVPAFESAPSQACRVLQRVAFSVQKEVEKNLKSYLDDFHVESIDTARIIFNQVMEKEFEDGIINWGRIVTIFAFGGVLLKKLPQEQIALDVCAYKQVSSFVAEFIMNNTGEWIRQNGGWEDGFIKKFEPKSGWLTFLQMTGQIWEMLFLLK

Bcl-2-related protein A1 [19] = biological target: T2, Bcl-2-related protein A1; experiment: Bfl-1 binding inhibitors, SAR follow-up, biochemical, fluorescence polarization (AID 1070)
[20] = A375 melanoma cell viability loss, dose response, counter-screen for MITF inhibitor project, CellTiter-Glo luminescence, dry powder, set 4 (AID 624364); format: functional, cell-based; details: A-375;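 note: A375 melanoma cells are MITF independent so this is a counter screen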
[21] = A375 melanoma cell cytotoxicity, dose response, counter-screen for MITF inhibitor project, CellTiter-Glo luminescence, dry powder, set 2 (AID 624489); format: functional, cell-based; details: A-375;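 note: actives are compounds lowering A375 viability meaning general cytotoxicity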
[22] = biological target: T3, Dual specificity protein phosphatase 6 (Rattus norvegicus, UniProt Q64346); experiment: MKP-3 phosphatase inhibitors, primary screen, biochemical, rat enzyme, in vitro (AID 425)
T3 sequence (Q64346 whole entry): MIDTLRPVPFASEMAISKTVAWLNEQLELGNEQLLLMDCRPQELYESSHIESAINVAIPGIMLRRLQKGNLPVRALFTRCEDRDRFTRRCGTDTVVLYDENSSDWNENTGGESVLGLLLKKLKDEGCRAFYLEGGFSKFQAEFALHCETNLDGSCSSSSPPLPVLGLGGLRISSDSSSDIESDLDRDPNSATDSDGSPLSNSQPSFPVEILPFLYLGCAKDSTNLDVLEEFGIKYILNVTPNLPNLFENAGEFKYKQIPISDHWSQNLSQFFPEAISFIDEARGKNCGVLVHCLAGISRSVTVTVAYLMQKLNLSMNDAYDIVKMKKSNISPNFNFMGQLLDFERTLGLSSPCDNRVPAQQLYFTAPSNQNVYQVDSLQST

Chain of Paired box protein Pax-8 (Q06710 whole entry): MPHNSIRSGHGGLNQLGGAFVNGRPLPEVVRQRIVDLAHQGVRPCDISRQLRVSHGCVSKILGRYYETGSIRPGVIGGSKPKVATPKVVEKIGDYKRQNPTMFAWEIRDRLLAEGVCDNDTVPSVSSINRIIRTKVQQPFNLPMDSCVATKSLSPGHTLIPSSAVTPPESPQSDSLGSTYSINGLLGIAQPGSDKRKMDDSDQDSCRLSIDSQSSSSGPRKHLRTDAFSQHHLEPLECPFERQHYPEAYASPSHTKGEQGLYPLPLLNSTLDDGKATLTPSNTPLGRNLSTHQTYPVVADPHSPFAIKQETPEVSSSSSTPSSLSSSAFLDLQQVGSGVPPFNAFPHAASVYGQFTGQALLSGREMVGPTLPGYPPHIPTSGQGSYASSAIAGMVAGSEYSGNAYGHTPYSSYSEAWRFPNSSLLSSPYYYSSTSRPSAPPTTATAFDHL
Chain of G-protein coupled receptor 183 (P32249 whole entry): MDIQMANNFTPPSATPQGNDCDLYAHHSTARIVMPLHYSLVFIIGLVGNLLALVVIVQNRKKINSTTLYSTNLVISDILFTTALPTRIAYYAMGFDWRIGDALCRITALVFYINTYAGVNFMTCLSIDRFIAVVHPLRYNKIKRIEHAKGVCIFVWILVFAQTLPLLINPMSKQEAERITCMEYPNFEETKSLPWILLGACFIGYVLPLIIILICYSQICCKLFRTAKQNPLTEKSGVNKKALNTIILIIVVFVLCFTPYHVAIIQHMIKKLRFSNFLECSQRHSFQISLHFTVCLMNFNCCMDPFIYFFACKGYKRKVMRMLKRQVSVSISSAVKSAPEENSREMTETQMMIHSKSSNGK
Chain of Ephrin type-A receptor 4 (Q03137 whole entry): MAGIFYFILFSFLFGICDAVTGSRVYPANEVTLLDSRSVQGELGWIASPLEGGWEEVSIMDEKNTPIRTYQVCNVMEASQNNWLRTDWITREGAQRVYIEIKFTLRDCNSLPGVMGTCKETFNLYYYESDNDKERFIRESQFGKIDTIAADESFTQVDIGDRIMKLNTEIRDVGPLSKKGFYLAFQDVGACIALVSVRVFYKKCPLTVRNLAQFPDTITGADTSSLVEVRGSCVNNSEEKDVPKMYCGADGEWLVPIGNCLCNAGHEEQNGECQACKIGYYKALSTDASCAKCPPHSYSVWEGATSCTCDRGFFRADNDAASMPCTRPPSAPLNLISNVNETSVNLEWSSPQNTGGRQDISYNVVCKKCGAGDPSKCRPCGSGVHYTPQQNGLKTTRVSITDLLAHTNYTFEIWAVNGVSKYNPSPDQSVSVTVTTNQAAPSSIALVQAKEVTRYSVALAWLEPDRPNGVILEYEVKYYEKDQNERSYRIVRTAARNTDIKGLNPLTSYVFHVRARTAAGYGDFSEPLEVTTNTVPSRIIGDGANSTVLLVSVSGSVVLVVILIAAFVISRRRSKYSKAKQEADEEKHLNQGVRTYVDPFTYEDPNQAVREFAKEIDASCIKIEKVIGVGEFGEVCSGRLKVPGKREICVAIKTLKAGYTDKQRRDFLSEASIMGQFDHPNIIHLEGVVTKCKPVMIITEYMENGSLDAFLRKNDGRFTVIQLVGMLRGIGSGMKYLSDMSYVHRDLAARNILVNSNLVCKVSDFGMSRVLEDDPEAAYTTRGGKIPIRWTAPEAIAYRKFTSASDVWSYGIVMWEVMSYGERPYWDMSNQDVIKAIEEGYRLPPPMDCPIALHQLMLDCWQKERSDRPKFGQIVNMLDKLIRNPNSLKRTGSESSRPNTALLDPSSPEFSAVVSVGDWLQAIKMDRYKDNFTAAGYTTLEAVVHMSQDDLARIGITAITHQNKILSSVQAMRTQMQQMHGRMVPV
Chain of Glyceraldehyde-3-phosphate dehydrogenase (P04406 whole entry): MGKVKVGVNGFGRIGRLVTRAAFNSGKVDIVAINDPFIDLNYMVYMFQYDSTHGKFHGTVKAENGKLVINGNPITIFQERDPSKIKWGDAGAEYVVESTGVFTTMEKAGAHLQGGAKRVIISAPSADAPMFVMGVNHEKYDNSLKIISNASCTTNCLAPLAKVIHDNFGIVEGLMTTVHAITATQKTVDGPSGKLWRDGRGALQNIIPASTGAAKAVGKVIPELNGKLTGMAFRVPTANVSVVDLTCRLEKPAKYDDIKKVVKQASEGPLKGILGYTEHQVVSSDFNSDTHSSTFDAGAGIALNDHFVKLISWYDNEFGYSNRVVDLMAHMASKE

Which IC50 [1] does the source give for `O=C(/C=C/c1ccc(F)cc1)N1CCN(S(=O)(=O)c2cccc(Cl)c2)CC1` here?
Its IC50 is 0.0115 µM (active).

What does the source list for `Cc1cc(OI)c(C(C)C)cc1-c1cc(C(C)C)c(OI)cc1C` [THYMOL IODIDE]?
IC50 [2]: > 33.3 µM (inactive); IC50 [3]: 15.1 µM (inactive); IC50 [4]: > 40 µM (inactive)

With `Cc1ccsc1/C=C/C1=Cc2c(sc(NC(=O)CSc3nnc(N)[nH]3)c2C#N)C(C)(C)C1` as the compound, how does the IC50 (Ephrin type-A receptor 4) read?
Its IC50 is 3.15 µM (active).

Which AC50 (Paired box protein Pax-8) does the source give for `CCc1ccc(/C=C2\SC(=S)N(CCCC(=O)N(CCO)c3ccccc3)C2=O)cc1` here?
Its AC50 is 7.65 µM (active).

And the AC50 [5]?
The AC50 was 31.9 µM (active).

What about the AC50 [6] of the same compound?
Its AC50 is 29.1 µM (active).

What about the AC50 [7] of the same compound?
The AC50 was 33 µM (active).

What about the AC50 [8] of the same compound?
Its AC50 is 9.33 µM (active).

What about the AC50 [9] of the same compound?
Its AC50 is 8.05 µM (active).

And the AC50 [10]?
Its AC50 is 35.1 µM (active).

And the AC50 [11]?
Its AC50 is 15.1 µM (active).

What does the source list for `O=C1c2ccccc2C(=O)N1CC(O)CN1CCOCC1` (stereo unspecified)?
IC50 [12]: > 67.5 µM (inactive); EC50 [13]: > 67.5 µM (inactive)

Which AC50 [14] does the source give for `O=C1C(Nc2cccc(Br)c2)=C(N2CCCC2)C(=O)c2ccccc21` here?
Its AC50 is 11.8 µM (active).

What about the AC50 [15] of the same compound?
Its AC50 is > 70 µM (inactive).

And the AC50 [16]?
Its AC50 is 13.1 µM (active).

Which results are given for `CCN1CCN(C2=C(Cl)C(=O)N(c3ccc(Cl)nc3)C2=O)CC1`?
IC50 [17]: > 100 µM (not active); IC50 (Bcl-2-related protein A1 [18]): 20.8 µM (active); IC50 (Bcl-2-related protein A1 [19]): 15 µM (active)

For `NC1=C(c2ccccc2)C(=O)c2ccccc2C1=O`, which AC50 [20] is on record?
Its AC50 is > 70 µM (inactive).

And the AC50 [21]?
The AC50 was > 70 µM (inactive).

For `O=C(COn1nnc2ccc(C(F)(F)F)cc21)Nc1c(Cl)cccc1Cl`, which IC50 [12] is on record?
The IC50 was > 67.6 µM (inactive).

What about the EC50 [13] of the same compound?
The EC50 was > 67.6 µM (inactive).

For `C[C@H]1C[C@H]2[C@@H]3CCC4=CC(=O)C=C[C@]4(C)[C@@]3(Cl)[C@@H](O)C[C@]2(C)[C@@]1(O)C(=O)CO` [BECLOMETHASONE], which IC50 [22] is on record?
Its IC50 is > 100 µM (not active).

For `O=C1C(Nc2ccc(Cl)cc2)=C(N2CCCCC2)C(=O)c2ccccc21`, which AC50 [14] is on record?
The AC50 was 4.38 µM (active).

And the AC50 [15]?
Its AC50 is 26.8 µM (active).

What about the AC50 [16] of the same compound?
Its AC50 is 2.87 µM (active).

For `CCCCCCCCCCCC[N+](C)(C)CCOc1ccccc1` [DOMIPHEN BROMIDE], which IC50 [3] is on record?
Its IC50 is > 40 µM (inactive).

What about the IC50 [4] of the same compound?
Its IC50 is 16.2 µM (inactive).
